Values after ≈ are worked out from the molar mass of the structure shown. Read-outs that look alike come from different tables or passages of the source.
Key:
Assay type in all cases: cell-based
[1] = system: Acinetobacter baumannii SR24396; assay: Minimum Inhibitory Concentration (MIC), agar plate incubation, Japan Society for Chemotherapy standard method
Protocol: (§1) The antimicrobial activity in vitro of the present compound (I) was determined.
(§2) Measurement of Minimum Inhibitory Concentration (MIC, μg/ml) was conducted according to the standard method of the Japan Society for Chemotherapy and the amount of bacteria for inoculation was 1000 cfu/spot, and sensitive disc medium was used as the test medium, and conducted using agar plate incubation.
(§3) In the tables, the unit of the values of inhibitory activity is μg/ml.

[2] = system: Klebsiella pneumoniae ATCC 700603; assay: as above
Protocol: as §1, §2, §3

[3] = system: Pseudomonas aeruginosa SR24; assay: as above; settings: Pseudomonas aeruginosa SR24, no enzyme, ceftazidime sensitive strain, 1000 cfu/spot, sensitive disc medium; for MIC: read-out: Minimum Inhibitory Concentration (MIC)
Protocol: as §1, §2, §3

[4] = system: Pseudomonas aeruginosa SR27060; assay: as above
Protocol: as §1, §2, §3

[5] = system: Stenotrophomonas maltophilia SR21970; assay: Minimum Inhibitory Concentration (MIC), agar plate incubation, CLSI method
Protocol: as §1
Measurement of Minimum Inhibitory Concentration (MIC, μg/ml) was conducted according to the CLSI (Clinical and Laboratory Standards Institute) and the amount of bacteria for inoculation was 10000 cfu/spot, and Mueller-Hinton agar medium was used as the test medium, and conducted using agar plate incubation.
as §3

[6] = Acinetobacter baumannii SR24396, no enzyme, 1000 cfu/spot, sensitive disc medium
[7] = Klebsiella pneumoniae ATCC 700603, SHV-18, ESBL producer strain, 1000 cfu/spot, sensitive disc medium
[8] = Pseudomonas aeruginosa SR27060, IMP-1, MBL producer strain (carbapenem resistant strain), 1000 cfu/spot, sensitive disc medium
[9] = Stenotrophomonas maltophilia SR21970, L-1, MBL producer strain (carbapenem resistant strain), 10000 cfu/spot, Mueller-Hinton agar medium
[10] = Acinetobacter baumannii SR24396, no enzyme, 1000 cfu/spot, sensitive disc medium, read-out: Minimum Inhibitory Concentration (MIC)
[11] = ATCC700603, Klebsiella pneumoniae ATCC 700603, SHV-18, ESBL producer strain, 1000 cfu/spot, sensitive disc medium, read-out: Minimum Inhibitory Concentration (MIC)
[12] = Pseudomonas aeruginosa SR27060, IMP-1, MBL producer strain (carbapenem resistant strain), 1000 cfu/spot, sensitive disc medium, read-out: Minimum Inhibitory Concentration (MIC)
[13] = Stenotrophomonas maltophilia SR21970, L-1, MBL producer strain (carbapenem resistant strain), 10000 cfu/spot, Mueller-Hinton agar medium, read-out: Minimum Inhibitory Concentration (MIC)
[14] = Acinetobacter baumannii, SR24396, read-out: Minimum Inhibitory Concentration (MIC)
[15] = Klebsiella pneumoniae, ATCC700603, read-out: Minimum Inhibitory Concentration (MIC)
[16] = Pseudomonas aeruginosa, SR27060, read-out: Minimum Inhibitory Concentration (MIC)
[17] = Stenotrophomonas maltophilia, SR21970, read-out: Minimum Inhibitory Concentration (MIC)

Row | Structure (SMILES) | Minimum Inhibitory Concentration (MIC) [1, 6] [µg/mL] | Minimum Inhibitory Concentration (MIC) [2, 7] [µg/mL] | Minimum Inhibitory Concentration (MIC) [3] [µg/mL] | Minimum Inhibitory Concentration (MIC) [4, 8] [µg/mL] | Minimum Inhibitory Concentration (MIC) [5, 9] [µg/mL] | MIC [1, 10] [µg/mL] | MIC [2, 11] [µg/mL] | MIC [3] [µg/mL] | MIC [4, 12] [µg/mL] | MIC [5, 13] [µg/mL] | also measured
1 | Nc1nc(C(=NOC(CC(=O)[O-])C(=O)[O-])C(=O)NC2C(=O)N3C(C(=O)[O-])=C(C[N+]45CCCC4CN(C(=O)c4ccc(O)c(O)c4F)CC5)CSC23)cs1.[Na+].[Na+] (centres unmarked) [II-28] | 0.125 | 0.25 | 0.125 | 1 | 0.5 |  |  |  |  |  | 
2 | C[C@@H](O/N=C(\C(=O)N[C@@H]1C(=O)N2C(C(=O)O)=C(C[N@@+]34CC[C@@H](C3)N(C(=O)c3ccc(O)c(O)c3Cl)CC4)CS[C@H]12)c1csc(N)n1)C(=O)[O-] [II-25] |  |  |  |  |  | 0.063 (≈ 0.0856 µM) | 0.5 (≈ 0.679 µM) | 0.125 (≈ 0.17 µM) | 1 (≈ 1.36 µM) | 1 (≈ 1.36 µM) | 
3 | Nc1nc(/C(=N/O[C@H](C(=O)[O-])c2ccccc2)C(=O)N[C@@H]2C(=O)N3C(C(=O)O)=C(C[N+]45CCC[C@H]4CN(C(=O)c4ccc(O)c(O)c4Cl)CC5)CS[C@H]23)ns1 (some centres unmarked) [Compound I-52] |  |  |  |  |  | 0.125 (≈ 0.154 µM) | 0.5 (≈ 0.615 µM) | 0.125 (≈ 0.154 µM) | 2 (≈ 2.46 µM) | 1 (≈ 1.23 µM) | 
4 | CC(C)[C@H](O/N=C(\C(=O)N[C@@H]1C(=O)N2C(C(=O)O)=C(C[N@+]3(C)[C@@H]4CC[C@H]3C[C@@H](NC(=O)c3ccc(O)c(O)c3Cl)C4)CS[C@H]12)c1csc(N)n1)C(=O)[O-] [III-3] |  |  |  |  |  | 0.125 (≈ 0.158 µM) | 0.25 (≈ 0.316 µM) | 0.125 (≈ 0.158 µM) | 0.5 (≈ 0.631 µM) | 0.5 (≈ 0.631 µM) | 
5 | Nc1nc(C(=NOC(CC(=O)[O-])C(=O)[O-])C(=O)NC2C(=O)N3C(C(=O)[O-])=C(C[N+]45CCC(CNC(=O)c6ccc(O)c(O)c6Cl)(CC4)CC5)CSC23)cs1.[Na+].[Na+] (centres unmarked) [II-58] | 0.125 | 0.5 | 0.25 | 0.5 | 0.5 |  |  |  |  |  | 
6 | Nc1nc(C(=NOC(CC(=O)[O-])C(=O)[O-])C(=O)NC2C(=O)N3C(C(=O)[O-])=C(C[N+]45CCCC4CN(C(=O)c4cc(O)c(O)c(F)c4)CC5)CSC23)cs1.[Na+].[Na+] (centres unmarked) [II-16] | 0.125 | 0.25 | 0.125 | 0.5 | 0.5 |  |  |  |  |  | 
7 | Nc1nc(C(=NOC(CC(=O)[O-])C(=O)[O-])C(=O)NC2C(=O)N3C(C(=O)[O-])=C(C[N+]45CCCC4CN(C(=O)c4ccc(O)c(O)c4Cl)CC5)CSC23)cs1.[Na+].[Na+] (centres unmarked) [Compound I-14] | 0.125 | 0.5 | 0.125 | 0.25 | 1 |  |  |  |  |  | 
8 | CC(C)(O/N=C(\C(=O)N[C@@H]1C(=O)N2C(C(=O)O)=C(C[N+]3(C)[C@@H]4CC[C@H]3C[C@@H](NC(=O)c3cc(O)c(O)cc3Cl)C4)CS[C@H]12)c1csc(N)n1)C(=O)[O-] (some centres unmarked) [II-55] |  |  |  |  |  |  |  |  |  |  | MIC [1, 14]: 0.25 µg/mL (≈ 0.321 µM); MIC [2, 15]: 0.25 µg/mL (≈ 0.321 µM); MIC [4, 16]: 0.5 µg/mL (≈ 0.642 µM); MIC [5, 17]: 0.5 µg/mL (≈ 0.642 µM)
9 | CC(C)(O/N=C(\C(=O)N[C@@H]1C(=O)N2C(C(=O)O)=C(C[N@+]3(C)[C@@H]4CC[C@H]3C[C@@H](NC(=O)c3cc(F)c(O)c(O)c3F)C4)CS[C@H]12)c1csc(N)n1)C(=O)[O-] [III-9] |  |  |  |  |  |  |  |  |  |  | MIC [1, 14]: 0.125 µg/mL (≈ 0.16 µM); MIC [2, 15]: 0.125 µg/mL (≈ 0.16 µM); MIC [4, 16]: 0.25 µg/mL (≈ 0.321 µM); MIC [5, 17]: 0.5 µg/mL (≈ 0.641 µM)
10 | C[N+]1(CC2=C(C(=O)[O-])N3C(=O)C(NC(=O)C(=NOC(CC(=O)O)C(=O)[O-])c4csc(N)n4)C3SC2)C2CCC1CC(NC(=O)c1cc(F)c(O)c(O)c1F)C2.[Na+] (centres unmarked) [III-10] | 0.125 | 0.125 |  | 0.25 | 0.5 |  |  |  |  |  | 

Reference: patent US9145425B2, “Cephem compound having catechol group” (SHIONOGI & CO., LTD., priority 2010, dated 2015)
